Data set [1] can be described thus: Oil Stability Index (OSI), antioxidant activity in COFA, AOCS Cd 12b-92. The conditions noted are these: 110° C.
Procedure: Antioxidants were added on a weight percent basis to quantities of Corn Oil Fatty Acids (CAS No. 8001-30-7) and allowed to dissolve. […] COFA samples containing undissolved antioxidants were thoroughly mixed before withdrawing samples for analysis, to ensure the samples contained the specified weight percent of antioxidant.
Samples were run and the induction periods were determined according to AOCS method Cd 12b-92. All samples were tested at 110° C.
The test system of data set [2] is yeast (e.g., Saccharomyces). The conditions noted are these: cited from earlier work.
Data set [3] relates to gram-negative and gram-positive bacteria (e.g., Lactobacillus). The settings on record: cited from earlier work.

Several values for one entry are separate records, joined by “and”; a condition that tells them apart may be missing. Equal values may be shown once.

As for `Cc1cc(C(C)(C)C)c(O)c(C(C)(C)C)c1` [BHT, butylated hydroxytoluene], the “Activity Index” value is 1.42 in data set [1] (Crude COFA, dose 0.0200 Wt %); 2.19 in data set [1] (Crude COFA, dose 0.1998 Wt %); 2.11 in data set [1] (Crude COFA, dose 0.2020 Wt %); 2.43 and 2.72 in data set [1] (Crude COFA, dose 0.205 Wt %); 2.07 in data set [1] (Crude COFA, dose 0.2097 Wt %); 17.63 in data set [1] (Distilled COFA, dose 0.2 Wt %). For the same compound, the “Activity Index” value in data set [1] (Distilled COFA, dose 1.1 Wt %) came out at 52.50; in data set [1] (Distilled COFA, dose 2 Wt %), 66.00. The OSI is 1.85 h in data set [1] (Crude COFA, dose 0.0200 Wt %); 2.85 h in data set [1] (Crude COFA, dose 0.1998 Wt %); 3 h in data set [1] (Crude COFA, dose 0.2020 Wt %); 11.3 h and 12.65 h in data set [1] (Crude COFA, dose 0.205 Wt %); 2.95 h in data set [1] (Crude COFA, dose 0.2097 Wt %); 2.35 h in data set [1] (Distilled COFA, dose 0.2 Wt %). The OSI in data set [1] (Distilled COFA, dose 1.1 Wt %) was found to be 7 h; in data set [1] (Distilled COFA, dose 2 Wt %) it was 8.8 h. Moreover, the Effect on yeast entry in data set [2] is recorded as “does not affect yeast”. The Antimicrobial activity result in data set [3] is on record as “have antimicrobial activity”.
As to `CCCCCCCCCCCCCCCC(=O)OC[C@H](O)[C@H]1OC(=O)C(O)=C1O` [L-ascorbic acid 6-palmitate], the OSI in data set [1] (Crude COFA, dose 0.0100 Wt %) is 10.05 h; in data set [1] (Crude COFA, dose 0.0200 Wt %), 4.1 h; in data set [1] (Crude COFA, dose 0.2000 Wt %), 25.4 h and 29.8 h; in data set [1] (Crude COFA, dose 0.2045 Wt %), 26.4 h.
`Cc1c(Cc2cc(C(C)(C)C)c(O)c(C(C)(C)C)c2)c(C)c(Cc2cc(C(C)(C)C)c(O)c(C(C)(C)C)c2)c(C)c1Cc1cc(C(C)(C)C)c(O)c(C(C)(C)C)c1` [Irganox 1330]: in data set [1] (Crude COFA, dose 0.2046 Wt %), the “Activity Index” value came out at 1.65 and the OSI is 2.35 h.
With `O=C(O)c1cc(O)c(O)c(O)c1` [Gallic acid], in data set [1] (Crude COFA, dose 0.193 Wt %), the “Activity Index” value was 1.70 and 1.25; the OSI is 7.9 h and 5.8 h.
In the case of `c1ccc2c(c1)Nc1ccccc1S2` [Phenothiazine], in data set [1] (Crude COFA, dose 0.2034 Wt %), the “Activity Index” value turned out to be 1.61 and the OSI turned out to be 2.3 h.
Consider `Cc1c(C)c2c(c(C)c1O)CC[C@@](C)(CCC[C@H](C)CCC[C@H](C)CCCC(C)C)O2` [a-Tocopherol], for which the “Activity Index” value in data set [1] (Distilled COFA, dose 0.2 Wt %) was determined as 2.63; in data set [1] (Distilled COFA, dose 1.1 Wt %), 1.13; in data set [1] (Distilled COFA, dose 2 Wt %) it was 1.13. Moreover, the OSI was 0.35 h in data set [1] (Distilled COFA, dose 0.2 Wt %); 0.15 h in data set [1] (Distilled COFA, dose 1.1 Wt %); 0.15 h in data set [1] (Distilled COFA, dose 2 Wt %).
`CCOc1ccc2c(c1)C(C)=CC(C)(C)N2` [Ethoxyquin]: in data set [1] (Crude COFA, dose 0.2074 Wt %), the “Activity Index” value is on record as 0.67 and the OSI stood at 0.95 h.
`CC(C)(C)c1cc(O)ccc1O` [TBHQ, tertiary-butylhydroquinone]: the “Activity Index” value in data set [1] (Crude COFA, dose 0.0200 Wt %) is on record as 1.35; in data set [1] (Crude COFA, dose 0.2000 Wt %), 2.81; in data set [1] (Crude COFA, dose 0.2082 Wt %), 2.60. Also, the OSI in data set [1] (Crude COFA, dose 0.0200 Wt %) was 1.75 h; in data set [1] (Crude COFA, dose 0.2000 Wt %), 3.65 h; in data set [1] (Crude COFA, dose 0.2082 Wt %), 3.7 h.
